Results taken from ChEMBL document CHEMBL4602605, “Fluoroquinolones structural and medicinal developments (2013-2018): Where are we now?” (Bioorg Med Chem, 2019).
≈ marks a conversion by molar mass, not a printed value.

Experiments:
Escherichia coli [1] = assay: Antimicrobial activity against Escherichia coli ATCC 25922 by CLSI method; format: functional
Staphylococcus aureus [2] = assay: Antimicrobial activity against Staphylococcus aureus ATCC 25923 by CLSI method; format: functional
Escherichia coli [3] = assay: Antimicrobial activity against penicillin-resistant Escherichia coli at < 1 ug/ml relative to control; format: functional
HL-60 = assay: Growth inhibition of human HL60 cells at 50 uM after 24 to 72 hrs by trypan blue staining based assay relative to control; format: functional; conditions: read-out: GI
HeLa = assay: Growth inhibition of human HeLa cells at 50 uM after 24 to 72 hrs by trypan blue staining based assay relative to control; format: functional; conditions: read-out: GI
B16 = assay: Growth inhibition of mouse B16 cells at 50 uM after 24 to 72 hrs by trypan blue staining based assay relative to control; format: functional; conditions: read-out: GI
[4] = Growth inhibition of mouse NIH/3T3 cells at 50 uM after 24 to 72 hrs by trypan blue staining based assay relative to control; format: cell-based, NIH3T3; conditions: read-out: GI
Staphylococcus aureus [5] = assay: Antimicrobial activity against methicillin-resistant Staphylococcus aureus incubated overnight by broth microdilution method; format: functional
Klebsiella pneumoniae = assay: Antimicrobial activity against Klebsiella pneumoniae incubated overnight by broth microdilution method; format: functional
[6] = system: Mycobacterium tuberculosis; assay: Antimicrobial activity against Mycobacterium tuberculosis H37Rv incubated for 10 days by microbroth dilution method; format: functional; conditions: 240 h
Mycobacterium avium = assay: Antimicrobial activity against Mycobacterium avium incubated for 10 days by microbroth dilution method; format: functional; conditions: 240 h
Mycolicibacter terrae = assay: Antimicrobial activity against Mycobacterium terrae incubated for 10 days by microbroth dilution method; format: functional; conditions: 240 h
Escherichia coli [7] = assay: Antimicrobial activity against Escherichia coli NCTC 11954 incubated for 24 hrs by microbroth dilution method; format: functional; conditions: NCTC 11954, 24 h
Escherichia coli [8] = assay: Antimicrobial activity against Escherichia coli ATCC 8739 incubated for 24 hrs by microbroth dilution method; format: functional; conditions: ATCC 8739, 24 h
Escherichia coli [9] = assay: Antimicrobial activity against Escherichia coli O157:H7 incubated for 24 hrs by microbroth dilution method; format: functional; conditions: O157:H7, 24 h
Escherichia coli [10] = assay: Antimicrobial activity against nalidixic acid-resistant Escherichia coli clinical isolate incubated for 24 hrs by microbroth dilution method; format: functional
Salmonella enterica = assay: Antimicrobial activity against Salmonella enterica ATCC 13312 incubated for 24 hrs by microbroth dilution method; format: functional; conditions: ATCC 13312, 24 h
Pseudomonas aeruginosa = assay: Antimicrobial activity against Pseudomonas aeruginosa ATCC 9627 incubated for 24 hrs by microbroth dilution method; format: functional; conditions: ATCC 9627, 24 h
Staphylococcus aureus [11] = assay: Antimicrobial activity against Staphylococcus aureus ATCC 33591 incubated for 24 hrs by microbroth dilution method; format: functional; conditions: ATCC 33591, 24 h
Staphylococcus aureus [12] = assay: Antimicrobial activity against Staphylococcus aureus ATCC 9253 incubated for 24 hrs by microbroth dilution method; format: functional; conditions: ATCC 9253, 24 h
Listeria monocytogenes = assay: Antimicrobial activity against Listeria monocytogenes ATCC 19115 incubated for 24 hrs by microbroth dilution method; format: functional; conditions: ATCC 19115, 24 h
Candida albicans [13] = assay: Antimicrobial activity against Candida albicans ATCC 10231 after 24 hrs by microbroth dilution method; format: functional; conditions: ATCC 10231, 24 h
Aspergillus flavus = assay: Antimicrobial activity against Aspergillus flavus ATCC 9643 after 48 hrs by microbroth dilution method; format: functional; conditions: ATCC 9643, 48 h
Stachybotrys chartarum = assay: Antimicrobial activity against Stachybotrys chartarum IBT 7711 after 48 hrs by microbroth dilution method; format: functional; conditions: IBT 7711, 48 h
Penicillium chrysogenum = assay: Antimicrobial activity against Penicillium chrysogenum ATCC 10106 after 48 hrs by microbroth dilution method; format: functional; conditions: ATCC 10106, 48 h
[14] = system: Mycolicibacterium smegmatis; assay: Antimicrobial activity against Mycobacterium smegmatis incubated for 30 to 32 hrs by spectrophotometry based assay; format: functional
PC-3 = assay: Growth inhibition of human PC3 cells by MTT assay; format: functional, cell-based
Aspergillus clavatus = assay: Antifungal activity against Aspergillus clavatus after overnight incubation by agar well diffusion method; format: functional
Candida albicans [15] = assay: Antifungal activity against Candida albicans after overnight incubation by agar well diffusion method; format: functional

O=C(O)c1cn(C2CC2)c2cc(N3CCN(C(=O)c4ccccc4)CC3)c(F)cc2c1=O
MIC (Escherichia coli [1]): 2 µg/mL (≈ 4.59 µM)
MIC (Staphylococcus aureus [2]): 1 µg/mL (≈ 2.3 µM)

O=C(O)c1cn(C2CC2)c2cc(N3CCN(Cc4ccccc4)CC3)c(F)cc2c1=O
MIC (Escherichia coli [1]): 0.25 µg/mL (≈ 0.593 µM)
MIC (Staphylococcus aureus [2]): 0.25 µg/mL (≈ 0.593 µM)

CCCOC(=O)c1cn(C2CC2)c2cc(N3CCNCC3)c(F)cc2c1=O
inhibition (INH) (Escherichia coli [3]): >60%

O=C(CSc1nnc(CN2CCN(c3cc4c(cc3F)c(=O)c(C(=O)O)cn4C3CC3)CC2)o1)c1ccc(Cl)cc1
inhibition of growth at 50 µM (HL-60): 100%
inhibition of growth at 50 µM (HeLa): 100%
inhibition of growth at 50 µM (B16): 100%
inhibition at 50 µM [4]: 100%

C[C@H]1Cn2cc(C(=O)NCCC(=O)NCCC[C@@H]3NC(=O)[C@H](CCCNC(=N)N)NC(=O)[C@H](CCCNC(=N)N)NC(=O)[C@H](CCCNC(=N)N)NC(=O)[C@@H](Cc4c[nH]c5ccccc45)NC(=O)[C@H](Cc4c[nH]c5ccccc45)NC(=O)[C@H](Cc4c[nH]c5ccccc45)NC(=O)[C@H](Cc4c[nH]c5ccccc45)NC(=O)[C@H](CCCNC(=N)N)NC3=O)c(=O)c3cc(F)c(N4CCN(C)CC4)c(c32)O1
MIC (Staphylococcus aureus [5]): 32 µg/mL (≈ 16.9 µM)
MIC (Klebsiella pneumoniae): > 128 µg/mL

CCOc1cccc2cc(-c3cc4c(cc3F)c(=O)c(C(=O)O)cn4CC)c(=O)oc12
MIC [6]: 1.5 µg/mL (≈ 3.54 µM)
MIC (Mycobacterium avium): 1.5 µg/mL (≈ 3.54 µM)
MIC (Mycolicibacter terrae): 0.7 µg/mL (≈ 1.65 µM)

C[C@H]1Cn2cc(C(=O)NCCC(=O)NCCC[C@@H]3NC(=O)[C@H](CCCNC(=N)N)NC(=O)[C@H](CCCNC(=N)N)NC(=O)[C@H](CCCNC(=N)N)NC(=O)[C@@H](Cc4c[nH]c5ccccc45)NC(=O)[C@H](Cc4c[nH]c5ccccc45)NC(=O)[C@H](Cc4c[nH]c5ccccc45)NC(=O)[C@H](Cc4c[nH]c5ccccc45)NC(=O)[C@H](CCCNC(=N)N)NC3=O)c(=O)c3cc(F)c(F)c(c32)O1
MIC (Staphylococcus aureus [5]): 8 µg/mL (≈ 4.4 µM)
MIC (Klebsiella pneumoniae): 32 µg/mL (≈ 17.6 µM)

CCCCCOC(=O)c1cn(C2CC2)c2cc(N3CCNCC3)c(F)cc2c1=O
inhibition (INH) (Escherichia coli [3]): >60%

COc1c(N2CCN(C)CC2)c(F)cc2c(=O)c(C(=O)N[C@H]3[C@H](O)[C@@H](O)[C@H](CO)[C@H](O)[C@@H]3O)cn(C3CC3)c12
MIC (Escherichia coli [7]): 159 µM (≈ 87.5 µg/mL)
MIC (Escherichia coli [8]): 318 µM (≈ 175 µg/mL)
MIC (Escherichia coli [9]): 39.7 µM (≈ 21.9 µg/mL)
MIC (Escherichia coli [10]): 636 µM (≈ 350 µg/mL)
MIC (Salmonella enterica): 159 µM (≈ 87.5 µg/mL)
MIC (Pseudomonas aeruginosa): 19.9 µM (≈ 11 µg/mL)
MIC (Staphylococcus aureus [11]): 159 µM (≈ 87.5 µg/mL)
MIC (Staphylococcus aureus [12]): 159 µM (≈ 87.5 µg/mL)
MIC (Listeria monocytogenes): 636 µM (≈ 350 µg/mL)
MIC (Candida albicans [13]): < 9.9 µM
MIC (Aspergillus flavus): 636 µM (≈ 350 µg/mL)
MIC (Stachybotrys chartarum): 636 µM (≈ 350 µg/mL)

CCn1cc(C(=O)O)c(=O)c2cc(F)c(-c3cc4cc(C(C)(C)C)cc(C(C)(C)C)c4oc3=O)cc21
MIC [6]: 3.1 µg/mL (≈ 6.31 µM)
MIC (Mycobacterium avium): 3.1 µg/mL (≈ 6.31 µM)
MIC (Mycolicibacter terrae): 1.5 µg/mL (≈ 3.05 µM)

COC[C@@H]1[C@H](OC(C)=O)[C@H](OC(C)=O)[C@@H](NC(=O)c2cn(C3CC3)c3c(OC)c(N4CCN(C)CC4)c(F)cc3c2=O)[C@H](OC(C)=O)[C@H]1OC(C)=O
MIC (Penicillium chrysogenum): 445 µM (≈ 326 µg/mL)
MIC (Escherichia coli [7]): 111 µM (≈ 81.6 µg/mL)
MIC (Escherichia coli [8]): 445 µM (≈ 326 µg/mL)
MIC (Escherichia coli [9]): 55.7 µM (≈ 40.8 µg/mL)
MIC (Escherichia coli [10]): 445 µM (≈ 326 µg/mL)
MIC (Salmonella enterica): 890 µM (≈ 652 µg/mL)
MIC (Pseudomonas aeruginosa): 111 µM (≈ 81.6 µg/mL)
MIC (Staphylococcus aureus [11]): 111 µM (≈ 81.6 µg/mL)
MIC (Staphylococcus aureus [12]): 55.7 µM (≈ 40.8 µg/mL)
MIC (Listeria monocytogenes): 111 µM (≈ 81.6 µg/mL)
MIC (Candida albicans [13]): 223 µM (≈ 163 µg/mL)
MIC (Aspergillus flavus): 55.7 µM (≈ 40.8 µg/mL)
MIC (Stachybotrys chartarum): 445 µM (≈ 326 µg/mL)

COc1c(N2CCN(C)CC2)c(F)cc2c(=O)c(C(=O)N/N=C\c3cccc(C)c3)cn(C3CC3)c12
MIC [14]: 42.5 µM (≈ 20.9 µg/mL)
IC50 (PC-3): 10 µg/mL (≈ 20.3 µM)
inhibition zone (IZ) (Aspergillus clavatus): 11 mm
inhibition zone (IZ) (Candida albicans [15]): 10 mm

COc1cc(/C=N\NC(=O)c2cn(C3CC3)c3c(OC)c(N4CCN(C)CC4)c(F)cc3c2=O)cc(OC)c1OC
MIC [14]: 81.2 µM (≈ 46.1 µg/mL)
IC50 (PC-3): 8.5 µg/mL (≈ 15 µM)
inhibition zone (IZ) (Aspergillus clavatus): 13 mm
inhibition zone (IZ) (Candida albicans [15]): 13 mm

C[C@H]1Cn2cc(C(=O)NCCC(=O)NCCCCC[C@@H](N)C(=O)N[C@@H](CCCNC(=N)N)C(=O)N[C@@H](CCCNC(=N)N)C(=O)N[C@@H](CCCNC(=N)N)C(=O)N[C@@H](CCCNC(=N)N)C(=O)N[C@@H](Cc3c[nH]c4ccccc34)C(=O)N[C@@H](CCCNC(=N)N)C(=O)N[C@@H](Cc3c[nH]c4ccccc34)C(=O)N[C@@H](Cc3c[nH]c4ccccc34)C(=O)O)c(=O)c3cc(F)c(N4CCN(C)CC4)c(c32)O1
MIC (Staphylococcus aureus [5]): 64 µg/mL (≈ 33.4 µM)
MIC (Klebsiella pneumoniae): > 128 µg/mL

CCCCCCCCOC(=O)c1cn(C2CC2)c2cc(N3CCNCC3)c(F)cc2c1=O
inhibition (INH) (Escherichia coli [3]): >60%

CCn1cc(C(=O)O)c(=O)c2cc(F)c(-c3cc4cc(Br)ccc4oc3=O)cc21
MIC [6]: 6.2 µg/mL (≈ 13.5 µM)
MIC (Mycobacterium avium): 6.2 µg/mL (≈ 13.5 µM)
MIC (Mycolicibacter terrae): 6.2 µg/mL (≈ 13.5 µM)

CC(=O)N1CCN(c2cc3c(cc2F)c(=O)c(C(=O)O)cn3C2CC2)CC1
MIC (Escherichia coli [1]): 0.5 µg/mL (≈ 1.34 µM)
MIC (Staphylococcus aureus [2]): 0.5 µg/mL (≈ 1.34 µM)

CCN1CCN(c2cc3c(cc2F)c(=O)c(C(=O)O)cn3C2CC2)CC1 [ENROFLOXACIN]
MIC (Escherichia coli [1]): 0.031 µg/mL (≈ 0.0863 µM)
MIC (Staphylococcus aureus [2]): 2 µg/mL (≈ 5.56 µM)
